Experimental data as given in US20240174644A1, “QUINOXALINE UREA INHIBITORS OF IKK-BETA AND NF-KB” (BOARD OF REGENTS OF THE UNIVERSITY OF NEBRASKA, priority 2021, published 2024).

Assays:
MM1S cells = assay: Growth inhibition assay in MM1S cells (Presto blue); format: cell-based; details: Homo sapiens, MM1.S, 120 h, MM1S cells (multiple myeloma model), 5-day incubation, triplicate
Experimental: MM1S cells were seeded (20K cells/well) and increasing concentrations of the inhibitors were added to these cells in triplicate. The plates were incubated for 5 -days after which Presto blue (544/590 ex/em wavelengths) was added and plates read after additional 15 min incubation at 37° C. The IC50 values were derived by curve fitting the data.

caspase 3/7 = assay: Caspase 3/7 activation assay in MM1S cells (Apo-One homogeneous caspase 3/7 assay); format: cell-based; details: inhibitor 10 μM, 24 h, fold change relative to the DMSO control
Experimental: MM1 S cells were seeded (25K cells/well) and inhibitors (10 μM) were added to these cells in triplicate. The plates were incubated for 24 h. Under multiplexing conditions, the cell viability using Alamar Blue assay and caspase activity using Apo-One homogeneous caspase 3/7 assay was determined. Data represented as fold change relative to the DMSO control.

SMILES	IC50 (MM1S cells) [µM]	Caspase 3/7 activation (caspase 3/7) [fold change]
Cn1cc(-c2cnc3ccc(NC(=O)Nc4ccc(F)c(Br)c4)cc3n2)cn1 [Compound 1]	5.43 ± 0.16	
Cn1cc(-c2cnc3ccc(NC(=O)Nc4cccc(Br)c4)cc3n2)cn1 [Compound 2]	2.83 ± 0.09	1.06 ± 0.03
Cn1cc(-c2cnc3ccc(NC(=O)Nc4ccc(F)cc4)cc3n2)cn1 [Compound 3, 1-(4-fluorophenyl)-3-(3-(1-methyl-1H-pyrazol-4-yl)quinoxalin-6-yl)urea]	> 20	1.03 ± 0.06
Cn1cc(-c2cnc3ccc(NC(=O)Cc4ccc(F)c(Br)c4)cc3n2)cn1 [Compound 4]	4.67 ± 0.09	
Cn1cc(-c2ccc3ccc(NC(=O)Nc4ccc(F)c(Br)c4)cc3n2)cn1 [Compound 5]	5.56 ± 0.66	

Second part, led by results:

IC50 (MM1S cells) [µM]	SMILES	Caspase 3/7 activation (caspase 3/7) [fold change]
10.6 ± 0.4	Cn1cc(-c2cnc3ccc(NC(=O)Nc4ccc(F)c(Br)c4)cc3c2)cn1 [Compound 6, 1-(3-Bromo-4-fluorophenyl)-3-(3-(1-methyl-1H-pyrazol-4-yl)quinolin-6-yl)urea]	1.36 ± 0.04
2.85 ± 0.09	Cn1ccc(-c2cnc3ccc(NC(=O)Nc4ccc(F)c(Br)c4)cc3n2)c1 [Compound 7, 1-(3-Bromo-4-fluorophenyl)-3-(3-(1-methyl-1 H-pyrrol-3-yl)quinoxalin-6-yl)urea]	1.51 ± 0.01
5.38 ± 0.13	Cn1cc(-c2cnc3ccc(NC(=O)Nc4ccc(F)c(C(F)(F)F)c4)cc3n2)cn1 [Compound 8]	1.96 ± 0.05
0.75 ± 0.01	Cn1cc(-c2cnc3ccc(NC(=O)Nc4ccc(F)c(C(F)(F)F)c4F)cc3n2)cn1 [Compound 9]	9.79 ± 2.47
